Results taken from patent publication US5344841A, “Bis-(hydroxylakylamino)-anthraquinone inhibitors of protein kinase C” (Sphinx Pharmaceuticals Corporation, priority 1992, dated 1994).
pIC50: −log10 of the molar value. Structures can show the parent of a compound that is named as a salt. Where two headings read alike, the source gives them in different places.

Legend:
protein kinase C = test: Protein kinase C (PKC) inhibition assay (histone H1 phosphorylation); type: biochemical; conditions: rat brain PKC, histone H1 substrate
Experimental: The protein kinase C (PKC) assay is designed to duplicated the in vivo conditions required for protein kinase C function. Therefore, pH, salt and cofactor concentrations are similar to physiologic levels. Histone H1 (lysine rich) is used in the assay as the phosphorylation acceptor protein because it is readily available and serves as a good substrate for protein kinase C. The enzyme is prepared from rat brain and is purified to apparent homogeneity as determined by a single band on silver stained SDS-polyacrylamide. Studies on the mechanism of regulation of protein kinase C by phospholipids, DAG and Ca^+2 have been hampered by the physical properties of the lipid cofactors. In the screening assay, phosphatidylserine (PS) and DAG are cosonicated to form unilamellar and multilamellar vesicles. The concentration of lipids in the assay are suboptimal to maximize the detection potential of the assay for inhibitors. […] The assay is started with the addition of enzyme and stopped after 10 min by the addition of 25% trichloroacetic acid (TCA) and 1.0 mg/ml bovine serum albumin (BSA). The radioactive histone product is retained and washed on glass fiber filters that allow the unreacted ^32 P-ATP to pass through. The amount of phosphorylation is determined by the radioactivity measured in a scintillation counter. Controls are included in every assay to measure background activity in the absence of enzyme, activity in the absence of lipids and the maximum enzyme activity with saturating levels of the activator lipids.

human neutrophils = test: Neutrophil superoxide anion (O2-) release assay, PMA-stimulated; type: cell-based; conditions: PMA-stimulated O2- production
Experimental: Neutrophils were isolated form whole blood collected from human volunteers. All reagent materials were obtained from Sigma Chemical Company with the exception of isotonic saline (Travenol Lab., Inc. Deerfield, Ill.) and lymphocyte separation medium (Organon Teknika, Durham, N.C.). Whole blood was drawn and mixed with sodium heparin (final conc. 10 units/ml) to prevent clotting. An equal volume of dextran (3.0%) in isotonic saline was added, mixed, and allowed to settle for 30 min to bind red blood cells (RBC). The supernatant was removed, underlayered with lymphocyte separation medium and centrifuged for 40 min at 400 xg in a centrifuge (Beckman GPR, Norcross, Ga.). […] The washed pellet was resuspended in 10 ml HBSS and placed on ice before counting on a hemacytometer. The neutrophil cell concentration is adjusted to 2×10^6 cells/ml with HBSS before adding 0.8 ml cells to 12×75 mm polypropylene test tubes (Fisher Scientific). Test agents are diluted to determine dose response and added at 10×final concentration at a volume of 0.1 ml/tube in duplicate. […] Tubes are then centrifuged at 900 xg for 10 min, 0.5 ml supernatant is removed and added to 0.5 ml H2 O in a microcuvette. Optical density (OD) of cytochrome c is read in a spectrophotometer (Shimadzu) at 550 nm. The ΔOD of cytochrome c is obtained between PMA-stimulated and non-stimulated tubes, and the dose responses of the test agents are compared to the positive controls (which contain HBSS in place of test agents). PMA stimulates O2^- production which reduces cytochrome c. Reducing cytochrome c increases its absorbance, and the change in OD of cytochrome c is proportional to the amount of O2^- produced by PMA stimulation. Inhibition of the O2^- burst by test compounds of the invention is seen as a reduction in the change in optical density. Inhibition is expressed as IC50 μM and is the amount of test compound that will inhibit fifty percent of the PMA-stimulated respiratory outburst, i.e. O2^- production.

[1] = test system: 8226/ADR adriamycin resistant line of 8226 cells; test: Human tumor growth inhibition, 3H-thymidine incorporation, 8226/ADR; type: cell-based; conditions: 3H-thymidine uptake
[2] = test system: MCF-7/ADR adriamycin resistant line of MCF-7 cells; test: Human tumor growth inhibition, 3H-thymidine incorporation, MCF-7/ADR; type: cell-based; conditions: MCF-7/ADR vs MCF-7
Excerpt: (§1) MCF-7 a human breast tumor cell line, and MCF-7/ADR an adriamycin resistant line of MCF-7 cells were obtained from the National Cancer Institute, Frederick, Md. NHEK a human keratinocyte cell line was obtained from Clonetic Corp., San Diego, Calif. 8226 a human myeloma cell line, 8226/MT a Mitoxantrone resistant line of 8226 cells, and 8226 ADR an adriamycin resistant line of 8226 cells were obtained from Dr. Bill Dalton, Arizona Cancer Center, Tuscon, Ariz.
(§2) Human tumor cells are trypsinized (0.05% trypsin, GIBCO), counted with a hemacytometer and seeded at a concentration of 10,000 cells/well in a 96 well microtiter plate. After allowing cells to attach to the surface overnight, the culture medium is aspirated and replaced with 100 μl of fresh medium. Test agents are diluted to determine dose response at 2× final concentration and added in quadruplicate at 100 μl/well to bring the total volume of each well to 200 μl. The microtiter plate is then incubated at 37° C. 5% CO2 overnight (18-24 hrs) before ^3 H-thymidine is added at a concentration of 0.5 μCi/well in 50 μl culture medium. The plate is incubated again for 4 hrs under the same conditions as above. Supernatant is then aspirated and 50 μl trypsin (0.05%, GIBCO) is added to each well. Cells are checked microscopically to determine detachment from surfaces, and plates are then harvested with a cell harvester (PHD, Cambridge Technology, Inc.) Filter papers corresponding to wells are placed in scintillation vials and counted to determine the amount of ^3 H-thymidine incorporated by the cells. Test agent response is compared to a positive control of cell wells with culture media only to determine the IC50. IC50 is the concentration of test compound required to inhibit fifty percent of the incorporation of ^3 H-thymidine into proliferating cells not exposed to test agent. Uptake of ^3 H-thymidine is a standard test for measuring the metabolism of cells. Cells which are actively proliferating take up ^3 H-thymidine, whereas cells that are not proliferating take up ^3 H-thymidine at much slower rates or not at all. Test agents that inhibit the uptake of ^3 H-thymidine thus slow the growth of cells.

[3] = test system: 8226/MT Mitoxantrone resistant line of 8226 cells; test: Human tumor growth inhibition, 3H-thymidine incorporation, 8226/MT; conditions: for Resistance Ratio (8226/MT): 8226/MT vs 8226; for pIC50: Homo sapiens, read-out: IC50 8226/MT
[4] = test system: MCF-7 human breast tumor cell line; test: Human tumor growth inhibition, 3H-thymidine incorporation, MCF-7; type: cell-based; conditions: Homo sapiens, MCF7, 3 h, read-out: IC50 MCF-7
Excerpt: as §1, §2

[5] = test system: 8226/ADR adriamycin resistant line of 8226 cells; test: Human tumor growth inhibition, 3H-thymidine incorporation, 8226/ADR; type: cell-based; conditions: 8226/ADR vs 8226
Excerpt: as §1, §2

[6] = test system: 8226 human myeloma cell line; test: Human tumor growth inhibition, 3H-thymidine incorporation, 8226; type: cell-based; conditions: read-out: IC50 8226
Excerpt: as §1, §2

[7] = test system: MCF-7/ADR adriamycin resistant line of MCF-7 cells; test: Human tumor growth inhibition, 3H-thymidine incorporation, MCF-7/ADR; type: cell-based; conditions: NCI/ADR-RES, 3H-thymidine uptake

Structure (SMILES)	pIC50 (protein kinase C)	pIC50 [1]	Resistance Ratio (IC50 MCF-7/ADR to IC50 MCF-7) [2]	Resistance Ratio (8226/ADR) [5]	pIC50 [7]	pIC50 ([4]; 3H-thymidine uptake)	pIC50 ([6]; 3H-thymidine uptake)	other results
CCN(CC)CC(O)CNc1ccc(NCC(O)CCl)c2c1C(=O)c1ccccc1C2=O (stereo not drawn) [1a-1 (HCl), 1-(3-Diethylamino-2-Hydroxypropylamino)-4-(3-Chloro-2-Hydroxypropylamino)-9, 10-Anthracenedione Hydrochloride Salt]								pIC50 (protein kinase C; Hydrochloride Salt): 3.64; pIC50 (protein kinase C; listed as 1a-1 (HCl salt), Hydrochloride Salt): 3.64; pIC50 (human neutrophils; Hydrochloride Salt): < 4.90
CCN(CC)CC(O)CNc1ccc(NCC(O)CCl)c2c1C(=O)c1ccccc1C2=O (stereo not drawn) [1a-1 (base), 1-(3-diethylamino-2-hydroxypropylamino)-4-(chloro-2-hydroxypropylamino)-9,10 anthracenedione]	3.74							pIC50 (human neutrophils; Homo sapiens, Neutrophil): < 5.20
CCCNCC(O)CNc1ccc(NCC(O)CCl)c2c1C(=O)c1ccccc1C2=O (stereo not drawn) [1a-2 (HCl)]	3.80							
O=C1c2ccccc2C(=O)c2c(NCC(O)CNCc3ccccc3)ccc(NCC(O)CCl)c21 (stereo not drawn) [1a-3 (HCl)]	3.96							
CCN(CC)CC(O)CNc1ccc(NCC(O)CO)c2c1C(=O)c1ccccc1C2=O (stereo not drawn) [1c-1 (HCl), 1-(3-Diethyl-2-Hydroxypropylamino)-4-(2,3-Dihydroxypropylamino)-9, 10-Anthracenedione Hydrochloride Salt]	3.74							
COc1cccc2c1C(=O)c1c(O)c3c(c(O)c1C2=O)C[C@@](O)(C(=O)CO)C[C@@H]3O[C@H]1C[C@H](N)[C@H](O)[C@H](C)O1 [ADR, reference compound]		6.24	200	11.4	5.40			Resistance Ratio (8226/MT) [3]: 1; pIC50 [3]: 7.30; pIC50 [4]: 7.70; pIC50 [6]: 7.30
CCCNCC(O)CNc1ccc(NCC(O)CCl)c2c1C(=O)c1ccccc1C2=O (stereo not drawn) [Compound 1a-2]		4.85	2.2	1.38	4.80	5.13	4.99	
O=C1c2ccccc2C(=O)c2c(NCC(O)CNCc3ccccc3)ccc(NCC(O)CCl)c21 (stereo not drawn) [Compound 1a-3]		4.79	1.9	1.08	4.85	5.13	4.82	
CCN(CC)CC(O)CNc1ccc(NCC(O)CO)c2c1C(=O)c1ccccc1C2=O (stereo not drawn) [Compound 1c-1]		4.60		1.4			4.74	
O=C1c2c(O)ccc(O)c2C(=O)c2c(NCCNCCO)ccc(NCCNCCO)c21 [MT, reference compound]		6.74	800	6	5.40	8.30	7.52	Resistance Ratio (8226/MT) [3]: 3.5; pIC50 [3]: 6.98
